Source: US11473055B2, “Virus-free cell lines and methods for obtaining same” (Glycobac, LLC, priority 2015, dated 2022)

How the values were obtained:
[1] = test system: Sf-rhabdovirus; experiment: Sf-rhabdovirus RT-PCR/nested PCR of single Sf9 cell subclones isolated by limiting dilution and treated with antiviral drugs; assay type: cell-based, Spodoptera frugiperda; details: single Sf9 cell subclone, 10 μg/ml, about a month (FIG. 2B)
Procedure: Example 3. Exemplary method for obtaining an established Sf cell line characterized by a lack of virus. […] This exemplary embodiment comprised isolating single Sf9 cells by limiting dilution, then treating the isolated cell subclones with antiviral drugs. […] The cells were cultured for about a month with ad hoc amplification to produce progressively larger cultures and, after achieving the 25 cm^2 flask level, samples were tested for Sf-rhabdovirus contamination by PCR, as described in Example 4. A clone lacking Sf-rhabdovirus contamination (FIG. 2B) was transferred to media lacking antiviral drugs, designated Sf-RVN passage zero (PO) and, at P2, transferred to a shake-flask culture in serum-free ESF 921 medium and subsequently maintained in this culture medium and format.
Example 4. Sf-rhabdovirus-specific Reverse Transcription-PCR (RT-PCR)/nested PCR. […] One μL of each primary PCR (RT-PCR) was then used as the template for secondary PCR's (RT-PCR/nested PCR) under the same conditions, except the primers were nested Sf-rhabdovirus-specific primers Mono-1i (SEQ ID NO: 7) and Mono-2i (SEQ ID NO: 8).

[2] = test system: Tn-nodavirus; experiment: Tn-nodavirus RT-PCR/nested PCR of single TN-368 cell subclones treated with ribavirin; assay type: cell-based, Trichoplusia ni; details: single TN-368 cell subclone, 200 μg/mL, about a month (FIG. 14)
Procedure: Example 15. Exemplary method for obtaining an established T. ni cell line that lacks virus. After discovering polyclonal TN-368 cell cultures treated with antiviral drug cocktails remained Tn-nodavirus-positive, we employed a disclosed method for obtaining a virus-free cell line. […] The first culture composition was cultured for about a month with ad hoc amplification to produce progressively larger cultures and, after achieving the 25 cm^2 flask level, samples were tested for Tn-nodavirus by RT-PCR, followed by nested PCR, as described in Example 16. […] The clone, designated Tn-NVN passage zero (PO), was adapted to serum-free ESF 921 medium and grown in suspension. The Tn-NVN cell line was subsequently maintained in this second culture composition and growth format.

[3] = test system: Sf-rhabdovirus

Structure (SMILES): O=c1cnn([C@@H]2O[C@H](CO)[C@@H](O)[C@H]2O)c(=O)[nH]1 [6-azauridine]
- Sf-rhabdovirus RNA by RT-PCR followed by nested PCR [1]: negative for Sf-rhabdovirus contamination

Structure (SMILES): NC(=O)c1ncn([C@@H]2O[C@H](CO)[C@@H](O)[C@H]2O)n1 [ribavirin]
- Tn-nodavirus RNA by RT-PCR followed by nested PCR [2]: lacking Tn-nodavirus
- Sf-rhabdovirus RNA by RT-PCR ([3]; polyclonal Sf9 cells, 100 μg/ml, about a month, still in presence of drug (FIG. 1A)): no RT-PCR-detectable Sf-rhabdovirus
- Sf-rhabdovirus RNA by RT-PCR/nested PCR after transfer to drug-free medium ([3]; ribavirin-treated Sf9 cells transferred to culture medium lacking antiviral drugs (FIG. 1B)): reverted to the Sf-rhabdovirus-positive phenotype
